Reference: ChEMBL document CHEMBL1150365, “Improved synthesis of antibacterial 3-substituted 6-anilinouracils” (Bioorg Med Chem Lett, 2008)
Converted amounts (≈) assume the structure as drawn. The source made the active and inactive calls. No cut-off for these calls is given here.

Key:
[1] = Inhibition of Staphylococcus aureus DNA polymerase 3C
[2] = test system: Streptococcus pneumoniae; assay: Antibacterial activity against Streptococcus pneumoniae 1707/4 in presence of bovine serum by broth microdilution method; assay type: functional
[3] = test system: Enterococcus faecalis; assay: Antibacterial activity against Enterococcus faecalis ICB 27159 in presence of bovine serum by broth microdilution method; assay type: functional
[4] = test system: Staphylococcus aureus; assay: Antibacterial activity against Staphylococcus aureus 133 by broth microdilution method; assay type: functional
[5] = Aqueous solubility of the compound; assay type: physicochemical; settings: water
[6] = test system: Staphylococcus aureus; assay: Antibacterial activity in Staphylococcus aureus injected CFU mouse at 100 mg/kg, ip after 30 mins; assay type: functional, organism-based; parameters: dose 100 mg/kg

Structure (SMILES)	IC50 [1] [nM]	MIC [2] [µg/mL]	MIC [3] [µg/mL]	MIC [4] [µg/mL]	solubility [5] [µg/mL]	Activity [6]
O=c1cc(Nc2ccc3c(c2)CCC3)[nH]c(=O)n1CC1CC1	300	4	16	4 (≈ 13.5 µM)	3.3 (≈ 11.1 µM)	inactive
CCc1cc(Nc2cc(=O)n(CCCO)c(=O)[nH]2)ccc1C	300	8	16	8 (≈ 26.4 µM)		
COC(=O)c1ccc(Cn2c(=O)cc(Nc3ccc4c(c3)CCC4)[nH]c2=O)o1	2000	16	32	32 (≈ 83.9 µM)		
CN(C)C(=O)c1cc(Cn2c(=O)cc(Nc3ccc4c(c3)CCC4)[nH]c2=O)on1	1200	16	32	32 (≈ 80.9 µM)		

Continued, in another order:

IC50 [1] [nM]	MIC [2] [µg/mL]	MIC [3] [µg/mL]	MIC [4] [µg/mL]	solubility [5] [µg/mL]	Structure (SMILES)	Activity [6]
> 13000	> 256	> 256	> 256		O=C(Cn1c(=O)cc(Nc2ccc3c(c2)CCC3)[nH]c1=O)c1ccc(Br)cc1	
1500	16	64	16 (≈ 48.6 µM)		CCOC(=O)Cn1c(=O)cc(Nc2ccc3c(c2)CCC3)[nH]c1=O	
